# Results as given in patent US10123533B2, “Nitrogen containing surfactants for agricultural use” (AKZO NOBEL CHEMICALS INTERNATIONAL B.V., priority 2009, dated 2018).
# What was measured:
# [1] = Solubility tests of prior art betaines in concentrated glyphosate salt solutions; format: physicochemical
# From the text: WO2000038523 (Huntsman, U.S. Pat. No. 6,500,784, U.S. Pat. No. 6,653,257, EP1139761) discloses an amphoteric surfactant with the structure RCONH(CH2)nN^+R^12CH2COO^− where R^1 is alkyl or hydroxyl alkyl group with C1 to C4 and n=2-4, and discloses a betaine with the structure R R^12N^+CH2COO^− where R^1 is alkyl or hydroxyl alkyl group with C1 to C4. The amphoterics disclosed there mainly functioned as a co-surfactant to solubilize a ether carboxylate in to concentrated glyphosate systems. In the context of the document, there was no mention of bioefficacy of betaines or other amphoteric surfactants by themselves. […] However, without proper testing of individual surfactant, it is not possible to determine whether the effect seen in the mixture of three surfactants comes from the claimed surfactant or the other two surfactants. Moreover, no actual bioefficacy data and especially no data are provided on the degree of “overall kill” provided in the absence of surfactants and in the presence of surfactants; without such data it is not possible to determine whether or not the claimed alkyl amido betaine was effective in enhancing herbicidal activity of glyphosate under the conditions of the test reported. This patent requires Na ion to be <0.035% for the glyphosate formulation to be stable. Moreover, it used only IPA-glyphosate as examples. […]
# [2] = tested on: wheat (TRIAV, a narrow leaf grass); assay: Green house % Control of glyphosate samples with various surfactants (Example 1), wheat; format: in vivo; details: WT
# From the text: (§1) Four glyphosate samples with various surfactants were sprayed on morning glory (IPOHE, a broad leaf week) and wheat (TRIAV, a narrow leaf grass) in a green house setting. The surfactants are designated in Table 1.
# (§2) The glyphosate rates of the spray solutions were 186, 372, and 743 g ae/ha (gram acid equivalent per hectare). […] Higher ratio means lower surfactant concentration. A ratio of 6.7 means the sample, at the same glyphosate concentration, has 2.2 times less surfactant than a sample with a ratio of 3.
# (§3) Sample D served as a negative control, since it contained only glyphosate without added surfactant. Sample C served as a positive control since it is well known that tallowamine-15EO is an excellent surfactant to enhance glyphosate efficacy.
# (§4) % Control ratings were conducted by an experienced person at 7, 14, 21, and 29 days after treatment (DAT). Digital pictures were also taken at the time of rating. Each % Control value was an average of 4 replicas.
# [3] = tested on: morning glory (IPOHE, a broad leaf week); assay: Green house % Control of glyphosate samples with various surfactants (Example 1), morning glory; format: in vivo; details: MG
# From the text: as §1, §2, §3, §4
# wheat = assay: Example 5 trial of glyphosate formulations on wheat; format: in vivo; details: rate of 168 g ae/ha; glyphosate to surfactant ratio 3:1; 21DAT
# From the text: FIG. 13 is a photo of wheat taken at 21 days after treatment with glyphosate alone, glyphosate with tallowamine-15EO, glyphosate with cocoamine-6EO betaine, and no glyphosate.
# Cocoamine-6EO betaine was compared in the same trial with tallowamine-15EO as the positive control and the surfactant-free sample as negative control in glyphosate formulations. Glyphosate to surfactant ratio was 3:1.
# This can be seen from the picture at FIG. 13, taken at 21DAT.
# [4] = tested on: morning glory (IPOHE) and winter wheat (TRZAW); assay: Example 2 green house trial of concentrated glyphosate samples, % control at 28 DAT; format: in vivo; details: glyphosate:surfactant 13:1, 489 and 978 g ae/ha, vs glyphosate alone
# Method: The concentrated glyphosate samples were diluted to two glyphosate rates and sprayed in a green house so that the final glyphosate rates of the spray solutions were 489 and 978 g ae/H. Three samples at two rates equals six treatments that were sprayed on each of two species, morning glory (IPOHE, a broad leaf week) and winter wheat (TRZAW, a narrow leaf grass). Two rates were employed, 978 g ae/H, and 16-30 at 489 g ae/ha.
# Higher ratio means lower surfactant concentration. A ratio of 13:1 means the sample, at the same glyphosate concentration, has 4.3 times less surfactant than a sample with a ratio of 3:1.
# Sample A (glyphosate with added tallowamine-15EO) served as a positive control. Sample B containing only glyphosate without added surfactant served as a negative control.
# FIGS. 7-8 illustrates the % control results at 28 DAT.
# [5] = tested on: morning glory (IPOHE) and wheat (TRIAV); assay: Example 1 green house trial, overall statement on adjuvancy; format: in vivo; details: glyphosate:surfactant ratio 6.7
# From the text: as §1, §2, §4
# morning glory and wheat = assay: Example 3 green house trial, % Control of glyphosate formulations; format: in vivo; details: 930, 465 and 233 g ae/ha; 28 DAT; compared with glyphosate formulation without surfactant
# From the text: FIG. 9 is a bar graph illustrating the % control results of applying glyphosate formulation containing oleylamphopolycarboxy glycinate, glyphosate formulation containing tallowamine-10EO, and glyphosate alone, each at 233 g ae/ha, 465 g ae/ha, and 930 g ae/ha to morning glory at 28 days after treatment.
# FIG. 10 is a bar graph illustrating the % control results of applying glyphosate formulation containing oleylamphopolycarboxy glycinate, glyphosate formulation containing tallowamine-10EO, and glyphosate alone, each at 233 g ae/ha, 465 g ae/ha, and 930 g ae/ha to wheat at 28 days after treatment.
# Glyphosate formulation containing oleylamphopolycarboxy glycinate (Na salt) was compared in a green house trial with glyphosate formulation containing tallowamine-10EO (as positive control) and glyphosate alone in terms of % Control. Three glyphosate rates were used, 930 g ae/ha, 465 gae/ha, and 233 g ae/ha.
# The results are plotted in FIGS. 9-10.
compound,measurement,setting,value
CCCCCCCCCCCCCCCCCC(=O)NCCC[N+](C)(C)CC(=O)[O-] [stearyl dimethylamidopropyl betaine],amount of surfactant that could be dissolved,[1]; in a composition of 51.3% potassium glyphosate (aqueous),< 1.8%
"CC(C)N.O=C(O)CNCP(=O)(O)O [Sample D, Glyphosate (isopropylamine salt)]",% Control 7DAT,[2]; Glyph rate 186 g ae/h,28%
same,% Control 14 DAT,[2]; Glyph rate 186 g ae/h,60%
same,% Control 21DAT,[2]; Glyph rate 186 g ae/h,80%
same,% Control 29DAT,[2]; Glyph rate 186 g ae/h,58%
same,% Control 7DAT,[2]; Glyph rate 372 g ae/h,58%
same,% Control 14 DAT,[2]; Glyph rate 372 g ae/h,85%
same,% Control 21DAT,[2]; Glyph rate 372 g ae/h,89%
same,% Control 29DAT,[2]; Glyph rate 372 g ae/h,89%
same,% Control 7DAT,[2]; Glyph rate 743 g ae/h,84%
same,% Control 14 DAT,[2]; Glyph rate 743 g ae/h,94%
same,% Control 21DAT,[2]; Glyph rate 743 g ae/h,98%
same,% Control 29DAT,[2]; Glyph rate 743 g ae/h,98%
same,% Control 7DAT,"[3]; Glyph rate 186 g ae/h, average of 4 replicas",55%
same,% Control 14 DAT,[3]; Glyph rate 186 g ae/h,68%
same,% Control 21DAT,[3]; Glyph rate 186 g ae/h,79%
same,% Control 29DAT,[3]; Glyph rate 186 g ae/h,68%
same,% Control 7DAT,[3]; Glyph rate 372 g ae/h,86%
same,% Control 14 DAT,[3]; Glyph rate 372 g ae/h,89%
same,% Control 21DAT,[3]; Glyph rate 372 g ae/h,95%
same,% Control 29DAT,[3]; Glyph rate 372 g ae/h,93%
same,% Control 7DAT,[3]; Glyph rate 743 g ae/h,83%
same,% Control 14 DAT,[3]; Glyph rate 743 g ae/h,90%
same,% Control 21DAT,[3]; Glyph rate 743 g ae/h,94%
same,% Control 29DAT,[3]; Glyph rate 743 g ae/h,91%
Ethoxylated cocoamine (6EO) betaine [cocoamine-6EO betaine],control to wheat,wheat,excellent control
"O=C(O)CNCP(=O)(O)O [glyphosate sample without surfactant, glyphosate]",control to wheat,wheat,did not give much control
tallowamine-15EO,control to wheat,wheat,excellent control
coco dimethylamidopropyl betaine,amount of surfactant that could be dissolved,[1]; in a composition of 360 g ae/l potassium glyphosate,< 80 g/L
tallow diamine trimethyl di-betaine,enhancement of glyphosate bioefficacy,[4],enhanced glyphosate bioefficacy even at very low rate
Cocodiamine trimethyl betaines,speed of glyphosate activity,[5],speeded up glyphosate activity
same,adjuvancy for glyphosate,"[5]; 186, 372, 743 g ae/ha",good adjuvancy for glyphosate even at very low use rate
oleylamphopolycarboxy glycinate (Na salt),enhancement of glyphosate efficacy,morning glory and wheat,enhanced glyphosate efficacy
